Laboratory results published in article PMC4667779 (Bioorganic & medicinal chemistry, 2014).
Where two headings read alike, the source gives them in different places.

Biological target: Pantothenate synthetase (PanC) from Mtb (Mycobacterium tuberculosis, UniProt P9WIL5)
Type: biochemical

Sequence of Pantothenate synthetase (PanC) from Mtb (P9WIL5 whole entry, looked up): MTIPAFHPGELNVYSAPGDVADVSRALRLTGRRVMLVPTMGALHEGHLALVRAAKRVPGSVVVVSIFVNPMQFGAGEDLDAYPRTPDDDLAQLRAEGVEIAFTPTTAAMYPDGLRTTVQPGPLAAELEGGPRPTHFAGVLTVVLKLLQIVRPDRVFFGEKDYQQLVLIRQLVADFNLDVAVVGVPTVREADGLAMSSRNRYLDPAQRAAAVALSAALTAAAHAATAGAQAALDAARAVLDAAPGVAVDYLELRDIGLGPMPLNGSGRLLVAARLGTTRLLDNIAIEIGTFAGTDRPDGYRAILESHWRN

CC(C)(C)[C@@H](O)C(=O)NS(=O)(=O)OC[C@H]1C[C@@H](n2cnc3c(N)ncnc32)[C@H](O)[C@@H]1O [compound 4, 5′-O-[N-((R)-2-Hydroxy-3,3-dimethylbutanoyl)sulfamoyl]aristeromycin]
fold loss in affinity relative to 1a (ratio of Ki values): 2–3 fold

CC(C)(C)[C@@H](O)C(=O)NS(=O)(=O)OC[C@H]1O[C@@H](n2cnc3c(N)ncnc32)[C@@H](O)[C@@H]1O [compound 2, 5′-O-[N-((R)-2-Hydroxy-3,3-dimethylbutanoyl)sulfamoyl]vidarabine]
fold loss in affinity relative to 1a (ratio of Ki values): 4–6 fold

CC(C)(C)[C@@H](O)C(=O)NS(=O)(=O)OC[C@H]1O[C@@H](n2cnc3c(N)ncnc32)[C@H](O)[C@@H]1O [1a, 5′-O-[N-((R)-2-Hydroxy-3,3-dimethylbutanoyl)sulfamoyl]adenosine]
modality of inhibition with respect to pantoic acid (double-reciprocal plots, fixed ATP and saturating β-alanine): competitive inhibitor towards pantoic acid

CC(C)(C)[C@@H](O)C(=O)NS(=O)(=O)OC[C@H]1O[C@@H](n2cnc3c(N)ncnc32)[C@H](F)[C@@H]1O [compound 3, 2′-Deoxy-2′-fluoro-5′-O-[N-((R)-2-Hydroxy-3,3-dimethylbutanoyl)sulfamoyl] adenosine]
fold loss in affinity relative to 1a: 2–3 fold

CC(C)(CO)[C@@H](O)CNS(=O)(=O)NC[C@H]1O[C@@H](n2cnc3c(N)ncnc32)[C@H](O)[C@@H]1O [compound 5, 5′-Amino-5′-deoxy-5′-N-[N-((R)-2,2-dimethylbutane-1,3-diol-4-yl)sulfamoyl] adenosine]
fold loss in affinity relative to 1a (ratio of Ki values): approximately 13 fold
